# Patent publication US10875861B1, “Therapeutic compounds” (Rutgers, The State University of New Jersey, priority 2017, dated 2020)
# Legend:
# BMI-1 protein = test: Inhibition of BMI-1 protein levels in U87 cells (Western blotting); format: cell-based; details: U87 cells, 72 hours, different concentrations
# Procedure: U87 cells were treated with DMSO or different concentrations of compound B1 for 72 hours. Cells were lysed in Cell Lysis Buffer (Cell Signaling, #9803) supplemented with Protease Inhibitor Cocktail (Sigma, #P8340), sonicated briefly while on ice and spun down for 30 minutes at 4° C., after which the supernatant was collected. For each sample, 2 uL of lysate was mixed well into 198 uL de-ionized water. Next, 10 uL of this diluted sample was added to a well in a 96 well plate in quadruplets and mixed with Protein Assay Dye Reagent Concentrate (Bio-Rad, #500-0006) (which was diluted 1:5 with water). BSA standards of 25 ng, 50 ng, 100 ng, 200 ng and 250 ng were also used to the plate and mixed with the reagent. The plate was read in a plate reader at 600 nm and samples were calibrated to the standards to determine the concentration of protein. Using the NuPAGE system (Invitrogen), 25 ug of protein was mixed with NuPAGE LDS 4× Sample Buffer (#NP0007), NuPAGE 10× Reducing Agent (#NP0004) and water, mixed well and heated at 96° C. for 15 minutes to denature the protein. […] Protein signals were detected using ECL Western Blotting Substrate (Pierce, #32106) and filmed.
# U87 cells were treated with DMSO or different concentrations of the inhibitors for 72 hours. […] The plate was read in a plate reader at 600 nm and samples were calibrated to the standards to determine the concentration of protein. […]
# [1] = test system: BMI-1 and ubiquitinated histone H2A in primary glioblastoma cells; test: Modulation / dynamics of BMI-1 and downstream targets in GBM cells (Western blotting); format: cell-based, human; details: GBM cells, B compounds, 72 hours
# Procedure: Different GBM cells were treated with DMSO or different concentrations of the B compounds for 72 hours. Cells were lysed in Cell Lysis Buffer (Cell Signaling, #9803) supplemented with Protease Inhibitor Cocktail (Sigma, #P8340), spun down for 30 minutes at 4° C., after which the supernatant was collected at every time point indicated. Western blotting analysis was performed on all samples as described above. BMI-1 loss started at 6-12 h, coinciding with an upper shift and hyper-phosphorylation of BMI-1 at 12-24 h and complete depletion at 72 h.
# To study the compound dynamic activity against GBM spheres, GBMs were tested with exemplary compounds. Different GBM cells were treated with DMSO or different concentrations of the inhibitors for 72 hours. Cells were lysed in Cell Lysis Buffer (Cell Signaling, #9803) supplemented with Protease Inhibitor Cocktail (Sigma, #P8340), spun down for 30 minutes at 4° C., after which the supernatant was collected at every time point indicated. Western blotting analysis was performed on all samples as described above. […] BMI-1 loss started at 6-12 h, coinciding with an upper shift and hyper-phosphorylation of BMI-1 at 12-24 h and complete depletion at 72 h. […] This is expected since BMI-1 is known to suppress p21. BMI-1 inhibition could be reversed using phosphatase treatment, moreover, when proteasomal inhibitor is added to treated cells after 24 h, BMI-1 is locked in the phosphorylated state, therefore showing that the phosphorylation event precedes BMI-1 degradation. The phosphorylation was independent of p38 kinase activation, as when we added […], the p38 inhibitor to the cultured cells upon treatment with the BMI-1 inhibitor, the combined treatment could not reverse the effects of RU-A15 on BMI-1 inhibition.
compound,measurement,setting,value
"COc1ccc(Nc2nc(-c3nc4ncccn4c3C)cs2)cc1 [Example B1, N-(4-methoxyphenyl)-4-(3-methylimidazo[1,2-a]pyrimidin-2-yl)thiazol-2-amine]",BMI-1 protein levels in U87 cells (Test C),BMI-1 protein,inhibition of BMI-1 protein levels
same,modulation of BMI-1 (Test B),[1],modulation of BMI-1
same,modulation of ubiquitinated histone H2A (Test B),[1],modulation of downstream target ubiquitinated histone H2A
